Results on ten molecules are retold here after patent US20240376123A1, “KRAS G12D INHIBITORS AND USES THEREOF” (SUZHOU ZANRONG PHARMA LIMITED, priority 2021, published 2024).

The subject of data set [1] is AsPC-1 (ATCC CRL-1682) cells. Put plainly: KRAS G12D 2D CellTiter-Glo proliferation assay, AsPC-1. The data set is classed as cell-based. The settings on record: Homo sapiens, ASPC1, 2D proliferation, 72 hours. As for the experimental part: (§1) AsPC-1 (ATCC CRL-1682) and LS513 (ATCC CRL-2134) cells were purchased from ATCC, GP2D (Cobioer CBP60010) cells was purchased from Cobioer biosciences CO., LTD, and each cell was cultured in medium supplemented with 10% fetal bovine serum (FBS), according to the protocol recommended by the manufacture. Cells were seeded 800 cells/well in 384-well plates (Corning) and incubated at 37° C., 5% CO2 for 18 hours. Serially diluted compound was added to the cells, and plates were incubated at 37° C., 5% CO2 for 72 hours. Cell viability was measured using a CellTiter-Glo® Luminescent Cell Viability Assay kit (Promega) according to the manufacturer's protocol.
(§2) The 2D and 3D proliferation data of the exemplary compounds of the present disclosure in different cell lines are shown in Table 3.
For orientation: Cellular ATP, detected with luciferase, serves as a proxy for viable cell number.

The next data set relates to Panc-1 p-ERK. Put plainly: Phospho-ERK 1/2 assay, Panc-1 (Table 2). The class given is cell-based. The settings on record: Homo sapiens; Panc-1 cells. As for the experimental part: (§3) Allow PNAC-1/HPAC cell growth in a T75 flask in DMEM and 10% 1 fetal calf serum (FCS; Gibco), using standard tissue culture procedures until ˜80% confluency is achieved. Day 1, seed 6000 cells/well in 384 well plate and incubate at 37° C., 5% CO2. Add diluted compound by Echo 550, final DMSO is 0.5%, incubate cells at 37° C., 5% CO2 for 3 hours. Then, remove medium and fix cells with 3.7% formaldehyde in PBS (PFA) by Apricot. Wash with PBS once. Permeabilize cells with cold 100% methanol and repeat wash once with PBS once. Add Li-Cor blocking buffer to each well and incubate 1.5 hours at RT. Remove blocking buffer and add primary antibody mixture (rabbit anti pERK, mouse anti GAPDH). Incubate at 4° C. overnight. Day 2, wash with PBST (Tween-20 in PBS) with total 3 times and then add secondary antibody mixture (goat anti rabbit 800CW (1:800 dilution in the combined solution) and goat anti mouse 680RD (1:800 dilution in the combined solution)), incubate for 60 minutes at RT away from light. Repeat washing with PBST 3 times. After final wash, centrifuge plate up-side-down at 1000 rpm to remove wash solution completely from wells. Before plate scanning, clean the bottom plate surface and the Odyssey* Imager scanning bed (if applicable) with moist, lint-free tissue to avoid any obstructions during scanning. Scan plate with detection in both 700 and 800 nm channels.
(§4) Table 2 describes the p-ERK IC50 values and selectivity over WT-KRAS cell line MKN-1 of the exemplary compounds of the present disclosure and reference compound MRTX-1133.

The subject of data set [2] is LS513 (ATCC CRL-2134) cells. The data set is described as follows: KRAS G12D 2D CellTiter-Glo proliferation assay, LS513. The class given is cell-based. The following applies: Homo sapiens, LS-513, 2D proliferation, 72 hours. On the procedure:
as §1, §2

For data set [3], the system named is p-ERK in PNAC-1/HPAC cell. Put plainly: Phospho-ERK 1/2 assay (Table 1). The class given is cell-based. The following applies: Homo sapiens; PNAC-1/HPAC cell, 3 hours compound incubation; read-out: p-ERK IC50. As for the experimental part:
as §3

Another data set concerns WT-KRAS cell line MKN-1. The data set is described as follows: Phospho-ERK 1/2 assay, WT-KRAS cell line MKN-1 (Table 2). The data set is classed as cell-based. The settings on record: for IC50: Homo sapiens, WT-KRAS cell line MKN-1, p-ERK; for Selectivity Fold: selectivity over WT-KRAS cell line MKN-1 vs Panc-1 p-ERK. On the procedure: as §3, §4
Data set [4] is described as follows: In vivo oral bioavailability assay. The following applies: Balb/c mice female, IV bolus 1 mg/kg and oral gavage 30 mg/kg, single dose. On the procedure: Single dose following IV bolus (1 mg/kg, 0.2 mg/mL in 1% DMSO, 99% SBE-β-CD (10% w/v) in water) and oral gavage (30 mg/kg, 3 mg/mL in 1% MC in DI water) administration of test compound in Balb/c Mice female. The blood samples were collected at 2 min, 5 min, 10 min, 30 min, 1 hr, 2 hr, 4 hr, 8 hr and 24 hr (additional 32 hr and 48 hr for MRTX1133) after IV bolus, at 15 min, 30 min, 1 hr, 1.5 hr, 2 hr, 3 hr, 4 hr, 8 hr and 24 hr (additional 32 hr and 48 hr for MRTX1133) after PO administration. The plasma concentrations of compounds were determined with UPLC-MS/MS.

For data set [5], the system named is GP2D (Cobioer CBP60010) cells. The data set is described as follows: KRAS G12D 2D CellTiter-Glo proliferation assay, GP2D. The class given is cell-based. The settings on record: 2D proliferation, 72 hours. As for the experimental part:
as §1, §2

The test system of data set [6] is AsPC-1 (ATCC CRL-1682) cells. Put plainly: KRAS G12D 3D CellTiter-Glo proliferation assay, AsPC-1. The class given is cell-based. The following applies: Homo sapiens, ASPC1, 168 h; 3D proliferation, 7 days, CellTiter-Glo 3D. On the procedure:
(§5) HPAC (ATCC CRL-2119) and AsPC-1 (ATCC CRL-1682) cells were purchased from ATCC, and each cell was cultured in medium supplemented with 10% fetal bovine serum (FBS), according to the protocol recommended by the manufacture. Serially diluted compound was added to 384-well Ultra-Low Attachment Surface round bottom plate (Corning). 400 cells/well were seeded in plate and incubated at 37° C., 5% CO2 for 7 days. Cell viability was measured using a CellTiter-Glo® 3D Cell Viability Assay kit (Promega) according to the manufacturer's protocol.
as §2

Data set [7] concerns HPAC (ATCC CRL-2119) cells. The data set is described as follows: KRAS G12D 3D CellTiter-Glo proliferation assay, HPAC. The data set is classed as cell-based. The settings on record: Homo sapiens, 168 h, 3D proliferation, 7 days, CellTiter-Glo 3D. On the procedure: as §5, §2

Turning to `C#Cc1c(F)ccc2cccc(-c3nc4c5c(nc(OC[C@@]67CCCN6C[C@H](F)C7)nc5c3F)N3CC5CCC(N5)[C@H]3CO4)c12` (single isomer, unassigned) [Compound 10], the IC50 in [1] was determined as 490 nM; with Panc-1 p-ERK, 2 nM; in data set [2], 238 nM; in [3], 2 nM; in the data set on WT-KRAS cell line MKN-1, 343 nM; in data set [5] it was 15 nM. For the same molecule, the results for the IC50 in data set [6] and in data set [7] were 48 nM and 28 nM, respectively. For the same molecule, in the data set on WT-KRAS cell line MKN-1, the “Selectivity Fold” value amounted to 171 Fold. Moreover, the “Bioavailability (%)” value in data set [4] came to 37.7%. Moreover, the “Fa*Fg (%)” value in [4] is given as 54.0%.
For the molecule `Oc1cc(Cl)c(C2CC2)c(-c2nc3c4c(nc(OC[C@@]56CCCN5C[C@H](F)C6)nc4c2F)N2C[C@@H]4CC[C@@H](N4)C2CO3)c1` (stereo partly drawn) [Compound 24, 3-chloro-4-cyclopropyl-5-((6R,9S)-1-fluoro-12-(((2R,7aS)-2-fluorotetrahydro-1H-pyrrolizin-7a(5H)-yl)methoxy)-5a,6,7,8,9,10-hexahydro-5H-4-oxa-3,10a,11,13,14-pentaaza-6,9-methanonaphtho[1,8-ab]heptalen-2-yl)phenol], the IC50 in [1] amounted to 71 nM; in data set [2], 93 nM; in data set [3], 7 nM; in [5] it was 2.2 nM; in data set [6], 8.7 nM; in data set [7], 7.1 nM.
Turning to `C#Cc1cccc2cccc(-c3nc4c5c(nc(OC[C@@]67CCCN6C[C@H](F)C7)nc5c3F)N3C[C@H]5CC[C@H](N5)[C@H]3CO4)c12` [Compound 25, (5aS,6S,9R)-2-(8-ethynylnaphthalen-1-yl)-1-fluoro-12-(((2R,7aS)-2-fluorotetrahydro-1H-pyrrolizin-7a(5H)-yl)methoxy)-5a,6,7,8,9,10-hexahydro-5H-4-oxa-3,10a,11,13,14-pentaaza-6,9-methanonaphtho[1,8-ab]heptalene], the IC50 is 516 nM in data set [1]; 10 nM in the data set with Panc-1 p-ERK; 80 nM in [2]; 10 nM in data set [3]; 754 nM in the data set with WT-KRAS cell line MKN-1; 23 nM in data set [5]. Further, the IC50 in data set [6] amounted to 54 nM; in data set [7], 76 nM. Moreover, in the data set on WT-KRAS cell line MKN-1, the “Selectivity Fold” value turned out to be 75 Fold. Also, the “Bioavailability (%)” value in data set [4] is on record as 39.2%. In addition, in data set [4], the “Fa*Fg (%)” value is 56.6%.
Take `CCc1c(F)ccc2cc(O)cc(-c3nc4c5c(nc(OC[C@@]67CCCN6C[C@H](F)C7)nc5c3F)N3C[C@H]5CC[C@H](N5)[C@H]3CO4)c12` [Compound 28, 5-ethyl-6-fluoro-4-((5aS,6S,9R)-1-fluoro-12-(((2R,7aS)-2-fluorotetrahydro-1H-pyrrolizin-7a(5H)-yl)methoxy)-5a,6,7,8,9,10-hexahydro-5H-4-oxa-3,10a,11,13,14-pentaaza-6,9-methanonaphtho[1,8-ab]heptalen-2-yl)naphthalen-2-ol]: the IC50 in data set [1] is 35 nM; in the data set with Panc-1 p-ERK, 0.76 nM; in data set [2], 25.2 nM; in data set [3], 0.76 nM; with WT-KRAS cell line MKN-1, 76 nM; in data set [5] it was 1.2 nM. Further, the IC50 in [6] is 4.7 nM; in data set [7] it was 3.3 nM. For the same molecule, in the data set on WT-KRAS cell line MKN-1, the “Selectivity Fold” value was found to be 100 Fold.
`C#Cc1c(F)ccc2cccc(-c3nc4c5c(nc(OCC6(CN7CCOCC7)CC6)nc5c3F)N3C[C@H]5CC[C@H](N5)[C@H]3CO4)c12` [Compound 40, (5aS)-2-(8-ethynyl-7-fluoronaphthalen-1-yl)-1-fluoro-12-((1-(morpholinomethyl)cyclopropyl)methoxy)-5a,6,7,8,9,10-hexahydro-5H-4-oxa-3,10a,11,13,14-pentaaza-6,9-methanonaphtho[1,8-ab]heptalene]: in data set [3], the IC50 was 155 nM.
The same measure, in the same setting: to `C#Cc1c(F)ccc2cccc(-c3nc4c5c(nc(OCC6(CN7CCO[C@H](C)C7)CC6)nc5c3F)N3C[C@H]5CC[C@H](N5)[C@H]3CO4)c12` [Compound 41, (5aS)-2-(8-ethynyl-7-fluoronaphthalen-1-yl)-1-fluoro-12-((1-(((R)-2-methylmorpholino)methyl)cyclopropyl)methoxy)-5a,6,7,8,9,10-hexahydro-5H-4-oxa-3,10a,11,13,14-pentaaza-6,9-methanonaphtho[1,8-ab]heptalene] belongs 390 nM.
Same read-out and setting: then `C#Cc1c(F)ccc2cccc(-c3nc4c5c(nc(OCC6(CN7CCOC[C@H]7C)CC6)nc5c3F)N3C[C@H]5CC[C@H](N5)[C@H]3CO4)c12` [Compound 42, (5aS)-2-(8-ethynyl-7-fluoronaphthalen-1-yl)-1-fluoro-12-((1-(((R)-3-methylmorpholino)methyl)cyclopropyl)methoxy)-5a,6,7,8,9,10-hexahydro-5H-4-oxa-3,10a,11,13,14-pentaaza-6,9-methanonaphtho[1,8-ab]heptalene], with 159 nM; and `CCCCCCCCCC(=O)OCOC(=O)N1[C@@H]2CC[C@H]1[C@H]1COc3nc(-c4cc(O)cc5ccc(F)c(CC)c45)c(F)c4nc(OC[C@@]56CCCN5C[C@H](F)C6)nc(c34)N1C2` [Compound 45, (Decanoyloxy)methyl (5aS,6S,9R)-2-(8-ethyl-7-fluoro-3-hydroxynaphthalen-1-yl)-1-fluoro-12-(((2R,7aS)-2-fluorotetrahydro-1H-pyrrolizin-7a(5H)-yl)methoxy)-5a,6,7,8,9,10-hexahydro-5H-4-oxa-3,10a,11,13,14-pentaaza-6,9-methanonaphtho[1,8-ab]heptalene-14-carboxylate], with 3.5 nM.
Same read-out and setting: then `C#Cc1c(F)ccc2cc(O)cc(-c3nc4c5c(nc(OC[C@@]67CCCN6C[C@H](F)C7)nc5c3F)N3C[C@H]5CC[C@H](N5)[C@H]3CO4)c12` [Compound 111, 5-ethynyl-6-fluoro-4-((5aS,6S,9R)-1-fluoro-12-(((2R,7aS)-2-fluorotetrahydro-1H-pyrrolizin-7a(5H)-yl)methoxy)-5a,6,7,8,9,10-hexahydro-5H-4-oxa-3,10a,11,13,14-pentaaza-6,9-methanonaphtho[1,8-ab]heptalen-2-yl)naphthalen-2-ol], with 12 nM.
As to `C#Cc1c(F)ccc2cc(O)cc(-c3ncc4c(N5CC6CCC(C5)N6)nc(OC[C@@]56CCCN5C[C@H](F)C6)nc4c3F)c12` [MRTX-1133, reference compound], the IC50 with Panc-1 p-ERK came out at 2.3 nM. Besides, in the data set on WT-KRAS cell line MKN-1, the IC50 amounted to 83 nM and the “Selectivity Fold” value is given as 36 Fold. Moreover, in [4], the “Bioavailability (%)” value is recorded as 0.66% and the “Fa*Fg (%)” value was determined as 0.95%.

As a reminder, the IC50 is the concentration needed to halve the response being measured.
